Source: PMC6813925, “Zearalenone and ß-Zearalenol But Not Their Glucosides Inhibit Heat Shock Protein 90 ATPase Activity” (Frontiers in Pharmacology, 2019)

Experiments:
[1] = test system: Arabidopsis thaliana plants containing RPS2; set-up: method as in Takahashi et al., 2003; conditions: 10 μM; ref Takahashi et al., 2003; cited from earlier work
[2] = Stability of glucosides under ATPase assay conditions (LC-MS/MS before and after incubation); format: physicochemical; conditions: LC-MS/MS before and after incubation period, p = 0.21
Procedure: (§1) The ATPase activities of recombinant proteins AtHSP90.1, TaHSP90-2, and ScHsp82 were assayed following the method of [Rowlands et al. (2004)] using an ATP concentration of 1 mM. The effect of several potential inhibitors was tested in 96-well plates using toxin concentrations ranging from 1 to 150 µM. All compounds were dissolved in 20% DMSO and further diluted. The assays were performed in a total volume of 25 µl with a final protein concentration of 0.2 µg/µl and 4% DMSO. Controls were incubated with the solvent DMSO without inhibitor. The reactions were incubated at 37°C for 3 h in the dark. After this time, the released inorganic phosphate was quantified with the malachite green colorimetric assay ([Rowlands et al., 2004]). The reaction was stopped by adding 10 µl of 34% sodium citrate to each well after 20 min incubation at room temperature, and the absorbance was measured at 620 nm.
Likewise, we found all glucosides of ZEN, αZEL, and βZEL stable under identical conditions, with recoveries of > 88%, p > 0.05, in each case.

[3] = Solubility and handling stability observations; format: physicochemical
From the text: (§2) Previously, we had shown that AtUGT73C6, when expressed in a multiple-ABC-transporter–deficient yeast strain, leads to the production of ZEN-14-glucoside [old nomenclature ZEN-4-glucoside, [Metzler (2011)]] after ZEN treatment ([Poppenberger et al., 2006]). […] We therefore generated RAD-glucoside for in vitro tests. […] Therefore, we were unable to determine at which position RAD was glucosylated.

TaHSP90-2 = TaHSP90-2 (Triticum aestivum, UniProt A0ACM8QAI9); assay: biochemical; conditions: for ATPase inhibition of TaHSP90-2: Figure 4B-D; for remaining activity at 100 µM: read-out: remaining (residual) ATPase activity of TaHSP90-2
From the text: (§3) For initial experiments, we expressed and purified the Saccharomyces cerevisiae ScHsp82 protein. The HSP82 coding region was amplified using the primer pair HSP82-1fwd (5’-[…]-3’) and HSP82-2rev (5’-[…]-3’), which contain BamHI and HindIII sites (underlined), respectively. The resulting 2,156 bp fragment was digested with BamHI and HindIII and ligated into the expression vector pQE-80L (Qiagen) cleaved with the same enzymes yielding plasmid pGW870. The coding region of AtHSP90.1 (At5g52640) was amplified from cDNA with the oligonucleotide primers 5’-[…]-3’ and 5’-[…]-3’. The resulting PCR product was digested with NdeI and SpeI (restriction sites on primers underlined) and introduced to pQE-80L (Qiagen), cleaved with the same enzymes to obtain the construct pQE80:AtHSP90.1. The cDNA of wheat HSP90 gene TaHSP90-2 (Triticum aestivum; DQ665784.1) was amplified with 5’-[…]-3’ and 5’-[…]-3’ (NdeI and SpeI, respectively) and introduced to pQE-80L. All constructs were verified by sequencing.
(§4) Protein production was induced by isopropyl β-D-1-thiogalactopyranoside (IPTG) following the supplier’s instructions. Protein purification was performed on an Äkta system (GE Healthcare, Uppsala, Sweden). […] Further purification was done by anion exchange chromatography on a 1 ml Resource Q column (GE Healthcare). Proteins were bound to the column in 25 mM Tris/Cl pH 7.5 and eluted with a linear gradient of 0–1 M NaCl in 15 column volumes. The obtained fractions were desalted using a Sephadex™ G-25 fine column, and the purified recombinant proteins were stored in the final elution buffer (25 mM Tris/Cl pH 7.5) at 4°C.
as §1
To test whether the yeast model reflects the situation in dicot and monocots plants, AtHSP90.1 and an HSP90 protein from wheat were expressed and purified. The wheat cDNA previously named “TaHSP90-2” corresponds to UniProtKB Q0Q0I7 (Q0Q0I7_WHEAT). This gene belongs to a family of nine highly similar cytosolic HSP90 proteins of wheat, has been named HSP90.3-D1 in a functional study ([Wang et al., 2011]), and is located on chromosome 5D (= EnsemblPlants Traes_5DL_89CF7F5DE).

AtHSP90.1 [4] = target: T1, AtHSP90.1 (Arabidopsis thaliana, UniProt P27323); assay: HSP90 ATPase activity assay (malachite green), AtHSP90.1; format: biochemical
T1 construct: The coding region of AtHSP90.1 (At5g52640) was amplified from cDNA; 6xHis; made in house; host or cells: Escherichia coli BL21 (DE3) or phosphatase-deficient strain K894
From the text: as §3, §4
The ATPase activities of recombinant proteins AtHSP90.1, TaHSP90-2, and ScHsp82 were assayed following the method of [Rowlands et al. (2004)] using an ATP concentration of 1 mM. […] After this time, the released inorganic phosphate was quantified with the malachite green colorimetric assay ([Rowlands et al., 2004]). The reaction was stopped by adding 10 µl of 34% sodium citrate to each well after 20 min incubation at room temperature, and the absorbance was measured at 620 nm. […]

AtHSP90.1 [5] = assay: Quantitative real-time PCR of AtHSP90.1 in seedlings; format: cell-based, Arabidopsis thaliana; conditions: 50 µM, 2 h, vs mock control DMSO, reference gene AT5G46630
Procedure: A. thaliana (ecotype Columbia, Col-0) seeds were surface-sterilized using sodium hypochlorite (2%) plus 0.01% Triton X for 10 min and rinsed twice with sterile water. Seeds were distributed in 24-well plates (4 wells per treatment, 30–40 seeds per well) and re-suspended in 1 ml (per well) of liquid Murashige and Skoog medium (“MS” basal salt mixture, Sigma) supplemented with 1% sucrose. After 2 days of stratification at 4°C, the plates were transferred to a growth chamber at 21°C under a 16 h light/8 h dark photoperiod.
Total RNA was extracted from 13-day-old A. thaliana (Col-0) seedlings grown in liquid MS medium supplemented with 2.5% sucrose and 50 μM ZEN for 2 h. […] RNA was quantified with the Qubit (Invitrogen) and NanoDrop (Peqlab) systems. […] Absolute and relative expression were calculated with a dilution series of purified AtHSP90.1 and AP2M PCR fragments of known molar concentration in each RT-qPCR run. […] Each sample was measured in triplicate from four independent cDNAs. […]
Figure 2 Transcriptional response of Arabidopsis thaliana HSP90 genes to zearalenone (ZEN). […] (B) Quantitative real-time PCR of A. thaliana HSP90.1 after 2 h treatment with ZEN (50 µM) or DMSO. The results are expressed as relative expression to the reference gene ADAPTOR PROTEIN-2 MU-ADAPTIN (AP2M; AT5G46630) and represent the means of four biological replicates ± standard deviation.

ScHsp82p = target: T2, ScHsp82p (Saccharomyces cerevisiae, UniProt P02829); assay: biochemical; format: biochemical; conditions: for remaining ATPase activity of ScHsp82p: at 100 µM, relative to DMSO control
T2 construct: The HSP82 coding region was amplified using the primer pair HSP82-1fwd; 6xHis (N); made in house; host or cells: Escherichia coli BL21 (DE3) or phosphatase-deficient strain K894
From the text: as §3, with “The resulting 2,156 bp fragment was digested with BamHI and HindIII and ligated into the expression vector pQE-80L (Qiagen) cleaved with the same enzymes yielding plasmid pGW870.” left out
as §4
All compounds were dissolved in 20% DMSO and further diluted. The assays were performed in a total volume of 25 µl with a final protein concentration of 0.2 µg/µl and 4% DMSO. Controls were incubated with the solvent DMSO without inhibitor. The reactions were incubated at 37°C for 3 h in the dark.

AtHSP90.1 [6] = test system: AtHSP90.1; set-up: method as in Werner, 2005; conditions: 50 µM, 2 h, vs DMSO; ref Werner, 2005; cited from earlier work
yeast strain YZGA515 = assay: Yeast spotting assay for RAD toxicity; format: cell-based, Saccharomyces cerevisiae; conditions: multiple-ABC-transporter-deficient yeast strain, SC-LEU plates with 40 mg/L RAD
From the text: as §2
Spotting of YZGA515 transformants (three serial 10^−1 dilutions) expressing either AtUGT73C6 (upper row) or containing the empty vector.

T1 sequence (P27323 whole entry): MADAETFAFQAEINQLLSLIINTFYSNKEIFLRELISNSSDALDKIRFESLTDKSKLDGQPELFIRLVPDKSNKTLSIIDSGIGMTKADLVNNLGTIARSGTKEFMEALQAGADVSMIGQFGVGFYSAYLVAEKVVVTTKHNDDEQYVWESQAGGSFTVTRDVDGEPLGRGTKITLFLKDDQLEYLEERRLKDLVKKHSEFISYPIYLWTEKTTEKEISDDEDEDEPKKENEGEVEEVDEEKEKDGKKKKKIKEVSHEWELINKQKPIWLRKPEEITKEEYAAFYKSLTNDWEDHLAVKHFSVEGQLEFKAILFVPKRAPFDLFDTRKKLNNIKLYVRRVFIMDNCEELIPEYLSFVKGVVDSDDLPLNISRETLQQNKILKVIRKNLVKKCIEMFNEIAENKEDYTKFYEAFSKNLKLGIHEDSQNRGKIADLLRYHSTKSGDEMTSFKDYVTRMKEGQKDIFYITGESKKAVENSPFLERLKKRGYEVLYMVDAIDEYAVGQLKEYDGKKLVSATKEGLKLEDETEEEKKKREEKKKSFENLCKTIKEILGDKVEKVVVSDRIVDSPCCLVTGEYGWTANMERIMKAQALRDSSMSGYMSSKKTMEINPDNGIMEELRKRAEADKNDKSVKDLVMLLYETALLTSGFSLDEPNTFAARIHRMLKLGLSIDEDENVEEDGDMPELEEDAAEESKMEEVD
T2 sequence (P02829 whole entry): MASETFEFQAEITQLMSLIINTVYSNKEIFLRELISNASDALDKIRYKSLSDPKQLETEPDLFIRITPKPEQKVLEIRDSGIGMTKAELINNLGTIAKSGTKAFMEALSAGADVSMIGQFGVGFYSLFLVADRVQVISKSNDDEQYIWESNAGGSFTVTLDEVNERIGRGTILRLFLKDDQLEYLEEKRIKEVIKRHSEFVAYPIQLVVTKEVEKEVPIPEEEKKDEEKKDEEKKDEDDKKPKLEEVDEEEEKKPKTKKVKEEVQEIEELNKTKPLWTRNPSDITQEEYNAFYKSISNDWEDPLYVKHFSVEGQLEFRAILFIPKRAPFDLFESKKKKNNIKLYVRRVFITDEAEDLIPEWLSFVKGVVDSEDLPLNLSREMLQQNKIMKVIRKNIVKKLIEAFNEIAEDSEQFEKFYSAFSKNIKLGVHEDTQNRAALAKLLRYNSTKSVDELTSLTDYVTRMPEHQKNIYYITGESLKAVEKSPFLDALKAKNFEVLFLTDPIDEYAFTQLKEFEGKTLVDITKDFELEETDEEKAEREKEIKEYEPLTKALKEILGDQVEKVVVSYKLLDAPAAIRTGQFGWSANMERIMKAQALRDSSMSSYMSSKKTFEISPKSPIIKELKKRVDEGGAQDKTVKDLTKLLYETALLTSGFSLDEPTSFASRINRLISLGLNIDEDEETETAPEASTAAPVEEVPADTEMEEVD
TaHSP90-2, sequence (A0ACM8QAI9 1-700): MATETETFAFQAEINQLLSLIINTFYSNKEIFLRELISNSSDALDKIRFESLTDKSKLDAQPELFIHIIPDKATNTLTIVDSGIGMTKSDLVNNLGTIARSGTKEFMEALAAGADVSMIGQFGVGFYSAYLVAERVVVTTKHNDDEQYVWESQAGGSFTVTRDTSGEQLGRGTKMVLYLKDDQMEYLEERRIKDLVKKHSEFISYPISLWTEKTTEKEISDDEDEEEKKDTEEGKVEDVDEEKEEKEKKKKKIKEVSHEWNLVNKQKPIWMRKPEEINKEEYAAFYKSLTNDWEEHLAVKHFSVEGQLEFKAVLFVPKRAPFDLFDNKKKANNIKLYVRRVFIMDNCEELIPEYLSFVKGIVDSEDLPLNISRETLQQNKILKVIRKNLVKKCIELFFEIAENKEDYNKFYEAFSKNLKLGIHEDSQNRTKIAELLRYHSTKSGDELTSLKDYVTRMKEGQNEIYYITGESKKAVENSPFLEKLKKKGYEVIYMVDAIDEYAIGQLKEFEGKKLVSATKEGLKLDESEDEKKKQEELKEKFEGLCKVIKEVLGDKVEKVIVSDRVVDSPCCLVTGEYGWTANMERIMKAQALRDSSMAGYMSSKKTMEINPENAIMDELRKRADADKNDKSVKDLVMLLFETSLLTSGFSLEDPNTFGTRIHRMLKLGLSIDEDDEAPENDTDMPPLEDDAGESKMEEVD

In the case of `COC1=C2C[C@@H](C)C[C@H](OC)[C@H](O)[C@@H](C)/C=C(\C)[C@H](OC(N)=O)[C@@H](OC)/C=C\C=C(/C)C(=O)NC(=CC1=O)C2=O` [geldanamycin], the “hypersensitive response triggered by Pseudomonas syringae DC3000 (avrRpt2)” value [1] is listed as “diminished”.

For radicicol-glucoside [RAD-glucoside], the “change in concentration under assay conditions” value [2] was “no significant” and the stability on handling ([3]; particularly when brought to dryness) was “appears unstable”.

With `C[C@H]1CCCC(=O)CCC/C=C/c2cc(O[C@@H]3O[C@H](CO)[C@@H](O)[C@H](O)[C@H]3O)cc(O)c2C(=O)O1` [ZEN14G, zearalenone-14-O-ß-D-glucopyranoside] the “ATPase inhibition of TaHSP90-2” value (TaHSP90-2) was “did not cause activity reduction” and the “ATPase inhibition of AtHSP90.1” value (AtHSP90.1 [4]; 100 µM, p = 0.75) was “inactive”.

With `C[C@H]1CCCC(=O)CCC/C=C/c2cc(O)cc(O)c2C(=O)O1` [ZEN, zearalenone] the IC50 (TaHSP90-2) was 20 µM, the remaining activity at 100 µM (TaHSP90-2) was 12 ± 5% and the “induction of AtHSP90.1 (quantitative real-time PCR)” value (AtHSP90.1 [5]) was 35 fold. The IC50 (AtHSP90.1 [4]) was ~10 µM, the “remaining ATPase activity of AtHSP90.1” value (AtHSP90.1 [4]; at 100 µM) was 18 ± 6% and the “remaining ATPase activity of ScHsp82p” value (ScHsp82p) was 59 ± 5%. The “induction of AtHSP90.1 (microarray)” value (AtHSP90.1 [6]) was “about 3.7 fold”.

With `C[C@H]1CCC[C@@H](O)CCC/C=C/c2cc(O)cc(O)c2C(=O)O1` [ßZEL, ß-zearalenol] the IC50 (TaHSP90-2) was ~10 µM, the remaining activity at 100 µM (TaHSP90-2) was 0.7 ± 3.3% and the “remaining ATPase activity of ScHsp82p” value (ScHsp82p) was 8.6 ± 2.4%. For the same molecule, the IC50 (ScHsp82p; recombinant 6xHis ScHsp82p, 1 mM ATP, 37°C, 3 h, read-out: IC50, ATPase inhibition of ScHsp82p) was ~15 µM.

In the case of `C[C@H]1CCC[C@H](O)CCC/C=C/c2cc(O)cc(O)c2C(=O)O1` [αZEL, α-zearalenol], the remaining activity at 100 µM (TaHSP90-2) is reported as 71 ± 6% and the “ATPase inhibition of ScHsp82p” value (ScHsp82p; toxin concentrations 1 to 150 µM) is reported as “did not elicit a detectable response”.

With `C[C@H]1CCCC(=O)CCC/C=C/c2cc(O)cc(O[C@@H]3O[C@H](CO)[C@@H](O)[C@H](O)[C@H]3O)c2C(=O)O1` [ZEN16G, zearalenone-16-O-ß-D-glucopyranoside] the “ATPase inhibition of TaHSP90-2” value (TaHSP90-2) was “did not cause activity reduction”.

With `C[C@@H]1C[C@H]2O[C@@H]2/C=C\C=C\C(=O)Cc2c(Cl)c(O)cc(O)c2C(=O)O1` [RAD, radicicol, reference compound] the “toxicity to yeast strain” value (yeast strain YZGA515) was “toxic” and the solubility in medium ([3]; yeast culture medium) was “limited solubility”.
